Results reported in patent US20250002464A1, “NOVEL COMPOUND AND PHARMACEUTICAL COMPOSITION COMPRISING SAME” (SAPIENSBIO INC., priority 2021, published 2025).

Test system: α-SMA
Experiment: α-SMA expression inhibitory ability in MRC5 cell line (Western blotting)
Format: cell-based
Settings: TGF-β1 (10 ng/mL), 72 hours, relative to TGF-β1 only
Protocol: Subsequently, the inhibitory effect on pulmonary fibrosis of the compounds according to the present invention was overall evaluated. An MRC5 cell line was treated with each compound at 10 μM, and 2 hours later, treated with TGF-β1 (10 ng/mL). After 72 hours, the cells were lysed using RIPA Buffer, and then an α-SMA protein level was measured through Western blotting. The α-SMA expression level when treating the cells with each compound and TGF-β1 compared to the α-SMA expression level when treating the cells only with TGF-β1 without the compound was calculated as the α-SMA expression inhibitory ability of the corresponding compound. The α-SMA expression inhibitory ability of each compound is summarized in Table 2 below (A: inhibitory ability≥70%, B: 50%: inhibitory ability<70%, C: inhibitory ability<50%).

Compound: CC(C(=O)N1CCN(c2ccc(F)cc2)c2cc(F)ccc21)N1CCCC1 (stereo not drawn) [Compound 51, 1-(6-fluoro-4-(4-fluorophenyl)-3,4-dihydroquinoxaline-1(2H)-yl)-2-(pyrrolidin-1-yl)propan-1-one]
- inhibition at 10 µM: ≥ 70%

Compound: CC(C(=O)N1CCN(c2ccc(F)cc2)c2cc(F)ccc21)N1CCN(C)CC1 (stereo not drawn) [Compound 52, 1-(6-fluoro-4-(4-fluorophenyl)-3,4-dihydroquinoxaline-1(2H)-yl)-2-(4-methylpiperazin-1-yl)propan-1-one]
- inhibition at 10 µM: < 50%

Compound: CC(C(=O)N1CCN(c2ccc(F)cc2)c2cc(F)ccc21)N1CCCCC1 (stereo not drawn) [Compound 53, 1-(6-fluoro-4-(4-fluorophenyl)-3,4-dihydroquinoxaline-1(2H)-yl)-2-(piperidin-1-yl)propan-1-one]
- inhibition at 10 µM: < 50%

Compound: CC(C(=O)N1CCN(c2ccc(F)cc2)c2cc(F)ccc21)N1CCC[C@H]1C (stereo partly drawn) [Compound 54, 1-(6-fluoro-4-(4-fluorophenyl)-3,4-dihydroquinoxaline-1(2H)-yl)-2-((R)-2-methylpyrrolidin-1-yl)propan-1-one]
- inhibition at 10 µM: < 50%

Compound: C[C@@H]1CCCN1CCC(=O)N1CCN(c2ccccc2)c2ccccc21 [Compound 57, (R)-3-(2-methylpyrrolidin-1-yl)-1-(4-phenyl-3,4-dihydroquinoxaline-1(2H)-yl)propan-1-one]
- inhibition at 10 µM: < 50%

Compound: O=C(CCN1CCCC(O)C1)N1CCN(c2ccccc2)c2ccccc21 (stereo not drawn) [Compound 58, 3-(3-hydroxypiperidin-1-yl)-1-(4-phenyl-3,4-dihydroquinoxaline-1(2H)-yl)propan-1-one]
- inhibition at 10 µM: 50 to 70%

Compound: CC(C(=O)N1CCN(c2ccccc2)c2ccccc21)N1CCCC1 (stereo not drawn) [Compound 61, 1-(4-phenyl-3,4-dihydroquinoxaline-1(2H)-yl)-2-(pyrrolidin-1-yl)propan-1-one]
- inhibition at 10 µM: < 50%

Compound: CC(C(=O)N1CCN(c2ccccc2)c2ccccc21)N1CCN(C)CC1 (stereo not drawn) [Compound 62, 2-(4-methylpiperazin-1-yl)-1-(4-phenyl-3,4-dihydroquinoxaline-1(2H)-yl)propan-1-one]
- inhibition at 10 µM: < 50%

Compound: CC(C(=O)N1CCN(c2ccccc2)c2ccccc21)N1CCN2CCCC2C1 (stereo not drawn) [Compound 64, 2-(hexahydropyrrolo[1,2-a]pyrazin-2(1H)-yl)-1-(4-phenyl-3,4-dihydroquinoxaline-1(2H)-yl)propan-1-one]
- inhibition at 10 µM: < 50%

Compound: CC(NC1CCN(C)C1)C(=O)N1CCN(c2ccccc2)c2ccccc21 (stereo not drawn) [Compound 65, 2-((1-methylpyrrolidin-3-yl)amino)-1-(4-phenyl-3,4-dihydroquinoxaline-1(2H)-yl)propan-1-one]
- inhibition at 10 µM: < 50%

Compound: C[C@@H]1CCCCN1C(=O)CN1CCN(c2ccccc2)c2ccccc21 [Compound 70, (R)-1-(2-methylpiperidin-1-yl)-2-(4-phenyl-3,4-dihydroquinoxaline-1(2H)-yl)ethan-1-one]
- inhibition at 10 µM: 50 to 70%

Compound: C[C@H]1CCCCN1C(=O)CN1CCN(c2ccccc2)c2ccccc21 [Compound 71, (S)-1-(2-methylpiperidin-1-yl)-2-(4-phenyl-3,4-dihydroquinoxaline-1(2H)-yl)ethan-1-one]
- inhibition at 10 µM: < 50%

Compound: CN1CCN(C(=O)CN2CCN(c3ccccc3)c3ccccc32)CC1 [Compound 73, 1-(4-methylpiperazin-1-yl)-2-(4-phenyl-3,4-dihydroquinoxaline-1(2H)-yl)ethan-1-one]
- inhibition at 10 µM: 50 to 70%

Compound: O=C(CN1CCN(c2ccccc2)c2ccccc21)N1CCN2CCCC2C1 (stereo not drawn) [Compound 75]
- inhibition at 10 µM: 50 to 70%

Compound: O=C(CN1CCN(c2ccccc2)c2ccccc21)N1CCN(C2CC2)CC1 [Compound 76, 1-(4-cyclopropylpiperazin-1-yl)-2-(4-phenyl-3,4-dihydroquinoxaline-1(2H)-yl)ethan-1-one]
- inhibition at 10 µM: < 50%

Compound: O=C(CN1CCN(c2ccccc2)c2ccccc21)N1CCCC(O)C1 (stereo not drawn) [Compound 77, 1-(3-hydroxypiperidin-1-yl)-2-(4-phenyl-3,4-dihydroquinoxaline-1(2H)-yl)ethan-1-one]
- inhibition at 10 µM: < 50%

Compound: O=C(CCN1CCCC1)N1CCN(Cc2ccccc2)c2ccccc21 [Compound 78, 1-(4-benzyl-3,4-dihydroquinoxaline-1(2H)-yl)-3-(pyrrolidin-1-yl)propan-1-one]
- inhibition at 10 µM: 50 to 70%

Compound: O=C(CCN1CCCCC1)N1CCN(Cc2ccccc2)c2ccccc21 [Compound 79, 1-(4-benzyl-3,4-dihydroquinoxaline-1(2H)-yl)-3-(piperidin-1-yl)propan-1-one]
- inhibition at 10 µM: < 50%

Compound: CN1CCN(CCC(=O)N2CCN(Cc3ccccc3)c3ccccc32)CC1 [Compound 80, 1-(4-benzyl-3,4-dihydroquinoxaline-1(2H)-yl)-3-(4-methylpiperazin-1-yl)propan-1-one]
- inhibition at 10 µM: 50 to 70%

Compound: CC(C(=O)N1CCN(Cc2ccccc2)c2ccccc21)N1CCCCC1 (stereo not drawn) [Compound 82, 1-(4-benzyl-3,4-dihydroquinoxaline-1(2H)-yl)-2-(piperidin-1-yl)propan-1-one]
- inhibition at 10 µM: < 50%

Compound: CC(C(=O)N1CCN(Cc2ccccc2)c2ccccc21)N1CCN(C)CC1 (stereo not drawn) [Compound 83, 1-(4-benzyl-3,4-dihydroquinoxaline-1(2H)-yl)-2-(4-methylpiperazin-1-yl)propan-1-one]
- inhibition at 10 µM: 50 to 70%

Compound: O=C(CN1CCCCC1)N1CCN(Cc2ccccc2)c2ccccc21 [Compound 85, 1-(4-benzyl-3,4-dihydroquinoxaline-1(2H)-yl)-2-(piperidin-1-yl)ethan-1-one]
- inhibition at 10 µM: < 50%

Compound: O=C(CCN1CCCCC1)N1CCN(Cc2ccccc2Cl)c2ccccc21 [Compound 88, 1-(4-(2-chlorobenzyl)-3,4-dihydroquinoxaline-1(2H)-yl)-3-(piperidin-1-yl)propan-1-one]
- inhibition at 10 µM: < 50%

Compound: CN1CCN(CCC(=O)N2CCN(Cc3ccccc3Cl)c3ccccc32)CC1 [Compound 89, 1-(4-(2-chlorobenzyl)-3,4-dihydroquinoxaline-1(2H)-yl)-3-(4-methylpiperazin-1-yl)propan-1-one]
- inhibition at 10 µM: 50 to 70%

Compound: O=C(CN1CCCCC1)N1CCN(Cc2ccccc2Cl)c2ccccc21 [Compound 94, 1-(4-(2-chlorobenzyl)-3,4-dihydroquinoxaline-1(2H)-yl)-2-(piperidin-1-yl)ethan-1-one]
- inhibition at 10 µM: 50 to 70%

Compound: CN1CCN(CC(=O)N2CCN(Cc3ccccc3Cl)c3ccccc32)CC1 [Compound 95, 1-(4-(2-chlorobenzyl)-3,4-dihydroquinoxaline-1(2H)-yl)-2-(4-methylpiperazin-1-yl)ethan-1-one]
- inhibition at 10 µM: 50 to 70%

Compound: CN1CCN(CCC(=O)N2CCN(Cc3cccc(Cl)c3)c3ccccc32)CC1 [Compound 98, 1-(4-(3-chlorobenzyl)-3,4-dihydroquinoxaline-1(2H)-yl)-3-(4-methylpiperazin-1-yl)propan-1-one]
- inhibition at 10 µM: < 50%

Compound: CC(C(=O)N1CCN(Cc2cccc(Cl)c2)c2ccccc21)N1CCCCC1 (stereo not drawn) [Compound 100, 1-(4-(3-chlorobenzyl)-3,4-dihydroquinoxaline-1(2H)-yl)-2-(piperidin-1-yl)propan-1-one]
- inhibition at 10 µM: ≥ 70%

Compound: CC(C(=O)N1CCN(Cc2cccc(Cl)c2)c2ccccc21)N1CCN(C)CC1 (stereo not drawn) [Compound 101, 1-(4-(3-chlorobenzyl)-3,4-dihydroquinoxaline-1(2H)-yl)-2-(4-methylpiperazin-1-yl)propan-1-one]
- inhibition at 10 µM: 50 to 70%

Compound: O=C(CN1CCCC1)N1CCN(Cc2cccc(Cl)c2)c2ccccc21 [Compound 102, 1-(4-(3-chlorobenzyl)-3,4-dihydroquinoxaline-1(2H)-yl)-2-(pyrrolidin-1-yl)ethan-1-one]
- inhibition at 10 µM: < 50%

Compound: O=C(CN1CCCCC1)N1CCN(Cc2cccc(Cl)c2)c2ccccc21 [Compound 103, 1-(4-(3-chlorobenzyl)-3,4-dihydroquinoxaline-1(2H)-yl)-2-(piperidin-1-yl)ethan-1-one]
- inhibition at 10 µM: 50 to 70%

Compound: CN1CCN(CC(=O)N2CCN(Cc3cccc(Cl)c3)c3ccccc32)CC1 [Compound 104, 1-(4-(3-chlorobenzyl)-3,4-dihydroquinoxaline-1(2H)-yl)-2-(4-methylpiperazin-1-yl)ethan-1-one]
- inhibition at 10 µM: ≥ 70%

Compound: CC(C(=O)N1CCN(Cc2ccc(Cl)cc2)c2ccccc21)N1CCN(C)CC1 (stereo not drawn) [Compound 110, 1-(4-(4-chlorobenzyl)-3,4-dihydroquinoxaline-1(2H)-yl)-2-(4-methylpiperazin-1-yl)propan-1-one]
- inhibition at 10 µM: 50 to 70%

Compound: O=C(CCN1CCCC1)N1CCN(Cc2ccccn2)c2ccccc21 [Compound 114, 1-(4-(pyridin-2-ylmethyl)-3,4-dihydroquinoxaline-1(2H)-yl)-3-(pyrrolidin-1-yl)propan-1-one di-oxalate]
- inhibition at 10 µM: 50 to 70%

Compound: O=C(CCN1CCCCC1)N1CCN(Cc2ccccn2)c2ccccc21 [Compound 115, 3-(piperidin-1-yl)-1-(4-(pyridin-2-ylmethyl)-3,4-dihydroquinoxaline-1(2H)-yl)propan-1-one]
- inhibition at 10 µM: < 50%

Compound: O=C(CN1CCCC1)N1CCN(Cc2ccccn2)c2ccccc21 [Compound 117, 1-(4-(pyridin-2-ylmethyl)-3,4-dihydroquinoxaline-1(2H)-yl)-2-(pyrrolidin-1-yl)ethan-1-one]
- inhibition at 10 µM: < 50%

Compound: CN1CCN(CC(=O)N2CCN(Cc3ccccn3)c3ccccc32)CC1 [Compound 118, 2-(4-methylpiperazin-1-yl)-1-(4-(pyridin-2-ylmethyl)-3,4-dihydroquinoxaline-1(2H)-yl)ethan-1-one]
- inhibition at 10 µM: < 50%

Compound: CN1CCN(CCC(=O)N2CCN(Cc3cccnc3)c3ccccc32)CC1 [Compound 121, 3-(4-methylpiperazin-1-yl)-1-(4-(pyridin-3-ylmethyl)-3,4-dihydroquinoxaline-1(2H)-yl)propan-1-one]
- inhibition at 10 µM: < 50%

Compound: O=C(CCN1CCCC1)N1CCN(Cc2ccncc2)c2ccccc21 [Compound 122, 1-(4-(pyridin-4-ylmethyl)-3,4-dihydroquinoxaline-1(2H)-yl)-3-(pyrrolidin-1-yl)propan-1-one]
- inhibition at 10 µM: 50 to 70%
